Assay results as given in patent publication US20050026958A1, “Methods of therapeutic treatment using amounts of retinoid components” (Allergan, Inc., priority 2003, published 2005).

What was measured:
RXR retinoid receptors = settings: cited from earlier work
[1] = Food effect (high-fat meal vs fast) on pharmacokinetics of tazarotenic acid after 6.3 mg oral tazarotene; format: in vivo, human; settings: healthy subjects
sebum secretion [2] = settings: published reports (Geiger); cited from earlier work
patients = experiment: Two placebo-controlled 24-week safety studies of oral tazarotene plus 16- to 24-week dose-response evaluations (Example 3); format: in vivo, human; settings: 4.5 mg orally once daily vs placebo
Protocol: Two multicenter, double-blind, randomized, placebo-controlled 24-week studies of identical design are conducted to evaluate the safety of oral tazarotene. In addition, 16- to 24-week dose-response evaluations are performed.
In the two safety trials, the incidence of adverse side effects with a 4.5 mg dose administered orally once daily is compared to the incidence of the same side effects with a placebo. […] The majority of these were mild in severity and typical of adverse effects associated with oral retinoids.

patients (psoriasis) = experiment: Adverse event monitoring in Phase 3 studies of orally administered tazarotene for psoriasis (Table 1); format: in vivo, human; settings: Taz 4.5 mg, combined Studies 1 and 2 (N = 348)
Protocol: A series of Phase 3 studies are conducted on orally administered tazarotene for the treatment of psoriasis. Adverse events (side effects) are monitored. In addition, published data for acitretin's side effects are also considered.

[3] = system: patients with severe nodulocystic acne; experiment: Multicenter double-blind randomized placebo-controlled study of oral tazarotene in severe nodulocystic acne (Example 7); format: in vivo, human
Source text: A multicenter, double-blind, randomized, placebo-controlled parallel-group study is undertaken to determine the efficacy of orally administered tazarotene in treating severe nodulocystic acne.
In addition, washout periods for other medications for this study are: 1 week for vitamin A supplements >5000 IU; 2 weeks for topical anti-acne medications (e.g., retinoids, azelaic acid, benzoyl peroxide); 2 weeks for topical or systemic antibiotic therapy that may alter the course of acne; and 6 months for systemic retinoids.
Patients are randomized to receive placebo or oral tazarotene (0.75, 1.5, 3, or 6 mg), in a 1:1:1:1:1 ratio once daily for 24 weeks. After this, the patients are followed without treatment for an additional 12 weeks. Patients discontinuing from the treatment period due to adverse effects or lack of efficacy are eligible for entry into the post-treatment phase.
In the study, overall acne severity is rated as: none (no inflammatory acne lesions); mild (few to several papules or pustules, no nodulocystic lesions); moderate (several to many papules or pustules, few to several nodulocystic lesions); and severe (numerous or extensive papules or pustules, many, for example, at least about 5 or at least about 10, nodulocystic lesions).
Treatment success is defined as at least moderate (about 50%) improvement on the following 7-point global response scale: • 0=completely cleared • 1=almost cleared (about 90% improvement) • 2=marked response (about 75% improvement) • 3=moderate response (about 50% improvement) • 4=slight response (about 25% improvement) • 5=condition unchanged • 6=condition worsened
In this study, facial nodulocystic lesion count includes lesions greater than 5 mm in size. Facial papular/pustular lesion count includes lesions less than or equal to 5 mm in size. Facial non-inflammatory lesion count includes open and closed comedones.
(§1) Sebum output is assessed every 4 weeks at selected centers using the Sebutape® patches, sold by Cuderm Corporation. Urinalysis, chemistry, and hematology values are monitored. Bone formation and resorption assessments (serum bone alkaline phosphatase and serum amino terminal telopeptides, respectively) at selected centers are monitored.
Bone mineral density of spine and proximal femur at selected centers is monitored. Ligament calcification or osteophyte formation (lateral X-ray of the cervical and thoracic spine, and ankle calcaneous) is monitored. Epiphyseal growth plate closure (internal oblique X-ray of the ankle in patients less than or equal to 21 years old) is monitored.

patients (acne) = experiment: Adverse event monitoring in studies of orally administered tazarotene for acne (Table 2); format: in vivo, human; settings: oral tazarotene for acne, combined Studies 1 and 2 (N = 223)
Protocol: Studies are conducted on orally administered tazarotene for the treatment of acne. Adverse events (side effects) are monitored.

sebum secretion [4] = experiment: Sebum output by Sebutape patches in the Example 7 study; format: in vivo, human; settings: oral tazarotene 0.75 to 6 mg once daily, maximum of 86 patients
Protocol: as §1

[5] = system: patients having nodulocystic acne; experiment: Two placebo-controlled dose-ranging safety studies of oral tazarotene in nodulocystic acne (Example 4); format: in vivo, human; settings: for joint disorder during treatment period: placebo 0%; for arthralgia during treatment period: placebo 6%; for myalgia during treatment period: placebo 9%; for asthenia during treatment period: placebo 13%; for dry skin during treatment period: placebo 19%; for headache during treatment period: placebo 28%; for cheilitis during treatment period: placebo 31%; for emotional lability (all cases mild): placebo 4%
Protocol: Two placebo-controlled dose-ranging studies are conducted to evaluate the safety of oral tazarotene in patients having nodulocystic acne. In the first study, patients receive orally administered tazarotene at daily doses of 0.4 mg to 2.8 mg in 96 (71+25) patients (12 weeks treatment plus 12 weeks post-treatment). In the second study, daily doses of 0.75 mg to 6 mg tazarotene are administered to 181 patients (24 weeks treatment plus 12 weeks post-treatment).

[6] = oral tazarotene 0.4 to 6 mg daily

CC1(C)CCSc2ccc(C#Cc3ccc(C(=O)O)cn3)cc21 [tazarotenic acid]
activation of RXR retinoid receptors (RXR retinoid receptors): does not activate
effect of high-fat meal on bioavailability or pharmacokinetics of tazarotenic acid ([1]; 6.3 mg oral tazarotene, single and multiple dose): does not substantially affect
average ratio of Cmax values (test/reference) ([1]; Day 0, 6.3 mg oral tazarotene after high fat breakfast vs 8-10 hour fast): 1.00

CC1(C)CC[S+]([O-])c2ccc(C#Cc3ccc(C(=O)O)cn3)cc21 (centres unmarked) [sulfoxide derivative]
activation of RXR retinoid receptors (RXR retinoid receptors): does not activate

CC1=C(/C=C/C(C)=C/C=C/C(C)=C\C(=O)O)C(C)(C)CCC1 [Isotretinoin, isotretinoin]
inhibitory effect on the rate of sebum secretion (sebum secretion [2]): about 90%

CCOC(=O)c1ccc(C#Cc2ccc3c(c2)C(C)(C)CCS3)nc1 [tazarotene]
incidence of ocular, auditory, or thyroid problems (patients): no statistically significant between-group differences
Atrophy of skin (patients (psoriasis)): 0 (0.0) number (%) of patients
Hyperesthesia (patients (psoriasis)): 0 (0.0) number (%) of patients
Paresthesia (patients (psoriasis)): 7 (2.0) number (%) of patients
patients withdrawing due to adverse events in treatment period ([3]; 0.75 mg group (2/35), placebo 0%): 6%
patients withdrawing due to adverse events in treatment period ([3]; 1.5 mg group (0/37)): 0%
incidence of treatment success (≧50% global improvement) vs placebo ([3]; 3 mg and 6 mg, week 24 and throughout post-treatment phase (p≦0.05)): significantly higher incidence of treatment success
patients withdrawing due to adverse events in treatment period ([3]; 3 mg group (2/37)): 5%
patients withdrawing due to adverse events in treatment period ([3]; 6 mg group (1/36)): 3%
bone formation and resorption (serum bone alkaline phosphatase, serum amino terminal telopeptides) ([3]; all treatment groups): do not appear to be altered
changes in urinalysis, chemistry, or hematology measures (incl. liver function tests, triglycerides, total cholesterol, HDL cholesterol) ([3]; all treatment groups): None of the treatment groups show any consistent clinically significant changes
ligament calcification, osteophyte formation, or changes in bone density ([3]; all treatment groups): None of the treatment groups show any clinically significant
Conjunctivitis (patients (acne)): 0 (0.0) number (%) of patients
Irritation of eyes (patients (acne)): 0 (0.0) number (%) of patients
effect on sebum secretion relative to placebo (Sebutape method) (sebum secretion [4]): does not substantially reduce sebum secretion relative to placebo
joint disorder during treatment period ([5]; 2.8 mg, n=11): 27%
arthralgia during treatment period ([5]; 2.8 mg, n=11): 9%
myalgia during treatment period ([5]; 2.8 mg, n=11): 0%
asthenia during treatment period ([5]; 2.8 mg, n=11): 0%
dry skin during treatment period ([5]; 2.8 mg, n=11): 18%
headache during treatment period ([5]; 2.8 mg, n=11): 9%
cheilitis during treatment period ([5]; 2.8 mg, n=11): 64%
emotional lability (all cases mild) ([5]; 3 mg group (1 patient)): 3%
depression ([5]; 3 mg group (3 patients: 2 mild, 1 severe), placebo 2%): 8%
joint disorder during treatment period ([5]; 3 mg, n=37): 14%
arthralgia during treatment period ([5]; 3 mg, n=37): 8%
myalgia during treatment period ([5]; 3 mg, n=37): 16%
asthenia during treatment period ([5]; 3 mg, n=37): 19%
dry skin during treatment period ([5]; 3 mg, n=37): 35%
headache during treatment period ([5]; 3 mg, n=37): 19%
cheilitis during treatment period ([5]; 3 mg, n=37): 78%
emotional lability (all cases mild) ([5]; 6 mg group (5 patients)): 14%
joint disorder during treatment period ([5]; 6 mg, n=36): 19%
arthralgia during treatment period ([5]; 6 mg, n=36): 28%
myalgia during treatment period ([5]; 6 mg, n=36): 25%
asthenia during treatment period ([5]; 6 mg, n=36): 19%
dry skin during treatment period ([5]; 6 mg, n=36): 50%
headache during treatment period ([5]; 6 mg, n=36): 36%
cheilitis during treatment period ([5]; 6 mg, n=36): 94%
severe dry skin ([5]; all groups): No patient has severe dry skin
changes in urinalysis, chemistry, or hematology measures (incl. liver function tests, triglycerides, total cholesterol, HDL cholesterol) [5, 6]: no consistent dose-related clinically significant changes
ligament calcification, osteophyte formation, changes in serum bone alkaline phosphatase, serum amino terminal telopeptides, bone density [5, 6]: not associated with any clinically significant
